Reference: patent US20050002868A1, “Method of treatment of a female suffering from androgen insufficiency” (Acrux DDS Pty Ltd., priority 2003, published 2005)

Assay: Open label, randomised two-way cross-over pharmacokinetic study of free serum testosterone after daily transdermal spray for 5 days
Format: in vivo, women
Experimental: The study was a single centre, open label pharmacokinetic study, with a randomised, two-way, cross-over design. The two treatment periods were 5 days with an eight day washout between treatments. Intensive blood sampling was performed on day 5 of each treatment period for pharmacokinetic analysis. The treatments consisted of daily application of 2×91 μL sprays for 5 days, either applied to the abdomen or forearm. Free serum testosterone concentration profiles were measured over 24 hours after daily administration of transdermal testosterone for 5 days to 6 healthy surgically menopausal women stabilized on oral oestrogen therapy. HPLC separation (followed by RIA) and equilibrium dialysis were used to measure free testosterone (Esoterix Inc.).

SMILES: C[C@]12CC[C@H]3[C@@H](CCC4=CC(=O)CC[C@@]43C)[C@@H]1CC[C@@H]2O [testosterone]
- average serum concentrations of free testosterone, forearm compared with abdomen (application to the forearm, day 5, FIG. 1): significantly higher
- Steady-state concentrations of free testosterone (daily application for 5 days, abdomen or forearm): attained on day 5
- variation of free testosterone serum concentrations, abdomen compared with forearm (dose application to the abdomen, day 5, FIG. 1): considerably less variation
